According to patent US12297192B2, “Crystal form of pyrimidine sulfonamide compound and preparation method therefor” (WUXI BIOCITY BIOPHARMACEUTICS CO., LTD., priority 2019, dated 2025):

What was measured:
[1] = target: T1, CYP1A2 (Homo sapiens, UniProt P05177); assay: Human liver microsomal cytochrome P450 isozyme inhibition; format: in vitro ADME; settings: human liver microsomes
T1 construct: Mixed human liver microsomes (HLM) were purchased from Corning Inc; tissue Corning Inc; host or cells: pooled human liver microsomes
T1 sequence (P05177 1-516): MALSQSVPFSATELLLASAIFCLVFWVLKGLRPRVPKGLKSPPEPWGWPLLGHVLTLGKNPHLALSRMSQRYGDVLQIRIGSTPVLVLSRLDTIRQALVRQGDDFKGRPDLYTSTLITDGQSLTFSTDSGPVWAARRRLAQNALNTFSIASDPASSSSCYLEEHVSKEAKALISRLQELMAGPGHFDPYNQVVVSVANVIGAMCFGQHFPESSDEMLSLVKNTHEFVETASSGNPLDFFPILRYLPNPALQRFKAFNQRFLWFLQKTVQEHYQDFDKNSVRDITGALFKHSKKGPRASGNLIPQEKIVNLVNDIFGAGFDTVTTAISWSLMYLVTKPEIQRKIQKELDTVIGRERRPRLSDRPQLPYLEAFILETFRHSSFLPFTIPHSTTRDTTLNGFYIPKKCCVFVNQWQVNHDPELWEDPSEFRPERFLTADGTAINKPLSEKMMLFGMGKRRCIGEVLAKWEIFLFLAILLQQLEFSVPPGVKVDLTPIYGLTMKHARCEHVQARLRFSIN
Description: (§1) The aim of the project was to evaluate the inhibitory activity of the test article against human liver microsomal cytochrome P450 isozymes (CYP1A2, CYP2C9, CYP2C19, CYP2D6 and CYP3A4) using a 5-in-1 probe substrate for CYP isozymes.
(§2) Mixed human liver microsomes (HLM) were purchased from Corning Inc. (Steuben, New York, USA) and stored at less than −80° C. prior to use. A diluted series of concentrations of the stock solution of the test article was added to an incubation system containing human liver microsomes, probe substrate and cofactors of the circulatory system. The control without the test article but with solvent was used as the enzyme activity control (100%). The concentration of metabolites generated by the probe substrate in the samples was determined by liquid chromatography-tandem mass spectrometry (LC-MS/MS). A non-linear regression analysis of the mean percentage activity of the test article against concentration was performed using SigmaPlot (V.11). The IC50 values were calculated using a three- or four-parameter inverse hyperbolic logarithmic function.

[2] = target: T2, CYP2C19 (Homo sapiens, UniProt P33261); assay: as above; format: in vitro ADME; settings: human liver microsomes
T2 construct: Mixed human liver microsomes (HLM) were purchased from Corning Inc; tissue Corning Inc; host or cells: pooled human liver microsomes
T2 sequence (P33261 whole entry): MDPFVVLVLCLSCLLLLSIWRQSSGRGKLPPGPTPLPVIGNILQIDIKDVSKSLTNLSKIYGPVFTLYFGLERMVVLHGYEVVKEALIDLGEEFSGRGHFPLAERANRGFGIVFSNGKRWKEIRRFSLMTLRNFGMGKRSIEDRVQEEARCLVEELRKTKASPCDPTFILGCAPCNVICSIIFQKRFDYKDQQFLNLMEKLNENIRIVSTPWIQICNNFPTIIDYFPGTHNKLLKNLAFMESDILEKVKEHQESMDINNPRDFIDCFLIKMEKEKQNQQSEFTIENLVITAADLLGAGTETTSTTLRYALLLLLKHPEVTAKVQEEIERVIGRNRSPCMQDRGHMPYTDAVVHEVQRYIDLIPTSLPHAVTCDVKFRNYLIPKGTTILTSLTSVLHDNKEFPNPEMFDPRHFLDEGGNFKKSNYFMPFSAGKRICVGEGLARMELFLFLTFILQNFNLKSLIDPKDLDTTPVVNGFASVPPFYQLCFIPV
Description: as §1, §2

[3] = target: T3, CYP2C9 (Homo sapiens, UniProt P11712); assay: as above; format: in vitro ADME; settings: human liver microsomes
T3 construct: Mixed human liver microsomes (HLM) were purchased from Corning Inc; tissue Corning Inc; host or cells: pooled human liver microsomes
T3 sequence (P11712 whole entry): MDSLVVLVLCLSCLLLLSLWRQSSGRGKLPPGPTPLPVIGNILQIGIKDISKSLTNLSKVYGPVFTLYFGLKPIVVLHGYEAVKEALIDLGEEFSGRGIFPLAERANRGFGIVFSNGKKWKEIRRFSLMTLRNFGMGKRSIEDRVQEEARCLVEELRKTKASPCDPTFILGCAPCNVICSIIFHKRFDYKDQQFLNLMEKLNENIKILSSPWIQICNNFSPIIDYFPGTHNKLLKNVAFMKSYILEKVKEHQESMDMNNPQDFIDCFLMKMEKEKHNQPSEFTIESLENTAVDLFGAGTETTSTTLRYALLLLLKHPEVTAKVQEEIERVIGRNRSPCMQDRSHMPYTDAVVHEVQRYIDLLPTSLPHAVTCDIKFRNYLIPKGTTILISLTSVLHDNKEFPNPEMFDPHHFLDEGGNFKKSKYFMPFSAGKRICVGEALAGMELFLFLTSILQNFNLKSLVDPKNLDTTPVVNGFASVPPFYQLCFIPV
Description: as §1, §2

[4] = Stability test of Crystal Form A in different solvents (XRPD after 3 days stirring in saturated solutions); format: physicochemical; settings: for Crystalline (form by XRPD, 3 days later) / Status (3 days later): 0.3 mL
Description: The crude compound of formula (I) was dissolved in dichloromethane at 38-40° C., filtered while hot, concentrated under reduced pressure to dryness to obtain mixed crystals of formula (I). Saturated solutions of mixed crystals of the compound of formula (I) in THF and ACN were prepared at 50° C., respectively.
The suspension was centrifuged. The precipitate was taken and dried overnight in a vacuum oven at 30° C. The dried product was subjected to XRPD to determine the status of the crystal forms.

[5] = target: T4, human ETA receptors (Homo sapiens, UniProt P25101); assay: In vitro antagonistic effect on human ETA receptors (Ca2+ fluorescence, SK-N-MC cells); format: cell-based
T4 construct: endogenously expressed human ETA receptors in SK-N-MC cells; host or cells: SK-N-MC cells
T4 sequence (P25101 21-427): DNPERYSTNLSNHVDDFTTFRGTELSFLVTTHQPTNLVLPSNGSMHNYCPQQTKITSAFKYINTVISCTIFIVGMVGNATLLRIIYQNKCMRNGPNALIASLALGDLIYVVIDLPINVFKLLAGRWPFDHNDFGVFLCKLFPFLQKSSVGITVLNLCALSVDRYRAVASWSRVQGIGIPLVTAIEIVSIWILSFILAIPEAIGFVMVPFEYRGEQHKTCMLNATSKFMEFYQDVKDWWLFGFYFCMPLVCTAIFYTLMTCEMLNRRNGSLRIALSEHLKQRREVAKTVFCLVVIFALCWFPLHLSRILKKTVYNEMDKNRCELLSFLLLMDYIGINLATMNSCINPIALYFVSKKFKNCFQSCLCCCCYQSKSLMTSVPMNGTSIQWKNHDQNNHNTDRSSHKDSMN
Description: The antagonistic activity of the compounds on endogenously expressed human ETA receptors in SK-N-MC cells was assessed by measuring the effects of the compounds on changes in cytoplasmic Ca^2+ ion signaling induced by an agonist of human ETA receptor using a fluorescence assay. The functional activity of the ETA receptor antagonistic effect was tested at Eurofins-Cerep SA according to current standard operating procedures.
• 1. Cells were suspended in Dulbecco's modified Eagle medium solution (DMEM, Invitrogen) supplemented with 1% FCSd and then distributed at a density of 5×10^4 cells/well in 384 plates (100 μL/well). • 2. Hank's Balanced Salt Solution (HBSS, Invitrogen) supplemented with 20 mM 4-(2-hydroxyethyl) piperazine-1-ethanesulfonic acid (Hepes, Invitrogen) (pH 7.4) was mixed with the fluorescent probe (Fluo4 NW, Invitrogen) and added to each well. Equilibrated with the cells for 60 minutes at 37° C. and then for 15 min at 22° C. • 3. The assay plate was placed in a microplate reader (CellLux, PerkinElmer). DMSO solution of the test compound and the positive control in appropriate concentration or HBSS buffer was added. After 5 minutes, 1 nM endothelin-1 or HBSS buffer (basal control) was added. Then the change in fluorescence intensity was measured. The fluorescence intensity is in proportion to the Ca^2+ ion concentration of the free cytosol. • 4. […] The standard positive control was BQ-123 and several concentrations were tested in each experiment and the data was analyzed using Prism to produce a concentration-response curve to calculate the IC50 values of the compounds. • 6.

Row | Structure (SMILES) | IC50 [1] [µM] | IC50 [2] [µM] | Inhibition on the isozyme CYP2C9 (in words) [3] | Crystalline (form by XRPD, 3 days later) ([4]; Acetonitrile, 25 °C) | Status (3 days later) ([4]; Acetonitrile, 25 °C) | Crystalline (form by XRPD, 3 days later) ([4]; Acetonitrile, 50 °C) | Status (3 days later) ([4]; Acetonitrile, 50 °C) | Crystalline (form by XRPD, 3 days later) ([4]; Tetrahydrofuran, 25 °C) | Status (3 days later) ([4]; Tetrahydrofuran, 25 °C) | Crystalline (form by XRPD, 3 days later) ([4]; Tetrahydrofuran, 50 °C) | Status (3 days later) ([4]; Tetrahydrofuran, 50 °C) | Stability in solvents (conclusion in words) ([4]; acetonitrile and tetrahydrofuran at both 25° C. and 50° C.) | In vitro antagonistic activity against the human ETA receptor (in words) [5] | Selectivity for ETA over ETB [5] | IC50 ([5]; SK-N-MC cells, 1 nM endothelin-1) [nM] | ETA/ETB Selectivity ([5]; table value)
1 | CCCNS(=O)(=O)Nc1ncnc(OCCOc2ncc(Br)cn2)c1-c1ccc(Br)cc1 [Macitentan, reference compound] | 37.4 | 31.7 | moderate inhibition | – | – | – | – | – | – | – | – | – | – | – | – | –
2 | COCCNS(=O)(=O)Nc1ncnc(OCCOc2ncc(Br)cn2)c1-c1ccc2c(c1)OCO2 | – | – | – | Crystal Form A | Precipitation | Crystal Form A | Precipitation | Crystal Form A | Precipitation | Crystal Form A | Precipitation | Experimental conclusion: Crystal Form A of the compound of formula (I) had good stability in acetonitrile and tetrahydrofuran at both 25 °C and 50 °C | very high | 20,000 fold | 1.6 | 20000
